Experimental data taken from patent US20240246946A1, “MODULATORS OF TREX1” (Constellation Pharmaceuticals, Inc., priority 2021, published 2024).

How the values were obtained:
full length human TREX1 = biological target: T1, full length human TREX1 (Homo sapiens, UniProt Q9NSU2); test: hTREX1 Biochemical Assay (fluorescence, dsDNA substrate degradation); conditions: biochemical, read-out: hTREX1 IC50
T1 construct: N-terminally His-Tev tagged full length human TREX1; made in house; host or cells: E. coli
T1 sequence (Q9NSU2 1-314): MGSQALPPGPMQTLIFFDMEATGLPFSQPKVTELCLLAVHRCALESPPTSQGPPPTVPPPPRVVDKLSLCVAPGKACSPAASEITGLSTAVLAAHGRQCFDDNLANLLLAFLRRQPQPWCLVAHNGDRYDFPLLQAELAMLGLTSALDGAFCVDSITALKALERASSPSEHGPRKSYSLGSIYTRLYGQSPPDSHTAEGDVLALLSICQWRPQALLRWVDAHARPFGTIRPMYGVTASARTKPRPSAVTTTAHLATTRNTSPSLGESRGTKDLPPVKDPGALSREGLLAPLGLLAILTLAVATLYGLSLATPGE
Procedure: (§1) Degradation of the dsDNA liberates free fluorophore to produce a fluorescent signal. Specifically, 7.5 μL of N-terminally His-Tev tagged full length human TREX1 (expressed in E. coli and purified in house) in reaction buffer (50 mM Tris, 150 mM NaCl, 2 mM DTT, 0.1 mg/mL BSA, 0.01% (w/v) Tween-20, 5 mM MgCl2, pH 7.4) was added to a 384-well Black ProxiPlate Plus (PerkinElmer) which already contained compound (150 nL) at varying concentrations as a 10 point dose-response in DMSO. The plate was incubated at 25° C. for 4 hours. Reactions were initiated by adding 7.5 μL of dsDNA substrate (Strand A: 5′ TEX615/GCT AGG CAG 3′; Strand B: 5′ CTG CCT AGC/IAbRQSp (Integrated DNA Technologies)) in reaction buffer. Final concentrations were 4 pM TREX1, 60 nM dsDNA substrate in reaction buffer with 1.0% DMSO (v/v). After 18 hours at 25° C., reactions were quenched by the addition of 2 μL of 500 mM EDTA.

full length mouse TREX1 = biological target: T2, full length mouse TREX1 (Mus musculus, UniProt Q91XB0); test: mTREX1 Biochemical Assay (fluorescence, dsDNA substrate degradation); conditions: biochemical, read-out: mTREX1 IC50
T2 construct: N-terminally His-Tev tagged full length mouse TREX1; made in house; host or cells: E. coli
T2 sequence (Q91XB0 1-314): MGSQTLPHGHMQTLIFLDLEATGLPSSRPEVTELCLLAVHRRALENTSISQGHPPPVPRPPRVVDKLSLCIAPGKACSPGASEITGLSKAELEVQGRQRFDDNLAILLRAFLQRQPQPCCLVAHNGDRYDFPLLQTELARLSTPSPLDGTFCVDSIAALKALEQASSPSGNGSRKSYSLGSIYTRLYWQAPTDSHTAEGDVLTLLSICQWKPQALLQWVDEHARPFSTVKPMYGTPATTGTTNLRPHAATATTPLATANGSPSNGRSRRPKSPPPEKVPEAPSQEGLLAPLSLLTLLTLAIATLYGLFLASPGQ
Procedure: as §1, with “length mouse” for “length human”, “were 6” for “were 4”

| IC50 (full length human TREX1) [nM] | IC50 (full length mouse TREX1) [nM] | SMILES |
| --- | --- | --- |
| > 10 | > 10 | CC(c1nc(C(=O)Nc2cnoc2)c(O)c(=O)n1C)C(c1cnn(C)c1)c1ccc(O)cc1C#N (single isomer, unassigned) [Example 80 D2E1] |
| > 10 | > 10 | CC(c1nc(C(=O)Nc2cnoc2)c(O)c(=O)n1C)C(c1cnn(C)c1)c1cc(F)c(F)cc1C#N (single isomer, unassigned) [Example 25 D1E2] |
| > 10 | > 10 | CC(c1nc(C(=O)Nc2cnoc2)c(O)c(=O)n1C)C(c1cnn(C)c1)c1cc(Cl)ccc1C#N (single isomer, unassigned) [Example 26 D2E2] |
| > 10 | > 10 | CC(c1nc(C(=O)Nc2cnoc2)c(O)c(=O)n1C)C(c1cnn(CC(C)(C)O)c1)c1ccccc1C#N (single isomer, unassigned) [Example 36 D1E2] |
| > 10 | > 10 | Cn1cc(C(c2ccccc2C#N)C(c2nc(C(=O)Nc3cnoc3)c(O)c(=O)n2C)C(F)(F)F)cn1 (single isomer, unassigned) [Example 40 D2E1] |
| > 10 | > 10 | Cc1cncc(C(c2ccccc2C#N)C(C)c2nc(C(=O)Nc3cnoc3)c(O)c(=O)n2C)n1 (single isomer, unassigned) [Example 53 D1E1] |
| > 10 | > 10 | CCn1cc(C(c2ccccc2C#N)C(C)c2nc(C(=O)Nc3cnoc3)c(O)c(=O)n2C)c(C)n1 (single isomer, unassigned) [Example 70 D1E2] |
| 1 to 10 | > 10 | CC(c1nc(C(=O)Nc2cnoc2)c(O)c(=O)n1C)C(c1cnccn1)c1ccccc1C#N (single isomer, unassigned) [Example 66 D1E2] |
| > 10 | > 10 | CCn1cc(C(c2ccc(F)cc2C#N)C(C)c2nc(C(=O)Nc3cnoc3)c(O)c(=O)n2C)cn1 (single isomer, unassigned) [Example 16 D2E2] |
| > 10 | > 10 | Cc1c(C(c2ccccc2C#N)C(C)c2nc(C(=O)Nc3cnoc3)c(O)c(=O)n2C)cnn1C (single isomer, unassigned) [Example 4 D2E1] |
| > 10 | > 10 | COCCn1cc(C(c2ccccc2C#N)C(C)c2nc(C(=O)Nc3cnoc3)c(O)c(=O)n2C)cn1 (single isomer, unassigned) [Example 9 D2E2] |
| > 10 | > 10 | CC(c1nc(C(=O)Nc2cnoc2)c(O)c(=O)n1C)C(c1cnn(C)c1)c1cc(F)c(F)cc1Cl (single isomer, unassigned) [Example 28 D2E2] |
| > 10 | > 10 | Cc1cncc(C(c2ccccc2C#N)C(C)c2nc(C(=O)Nc3cnoc3)c(O)c(=O)n2C)n1 (single isomer, unassigned) [Example 53 D2E1] |
| > 10 | > 10 | COCCCn1cc(C(c2ccccc2C#N)C(C)c2nc(C(=O)Nc3cnoc3)c(O)c(=O)n2C)cn1 (single isomer, unassigned) [Example 24 D2E2] |
| 1 to 10 | > 10 | CCn1cc(C(c2ccccc2C#N)C(C)c2nc(C(=O)Nc3cnoc3)c(O)c(=O)n2C)c(C)n1 (single isomer, unassigned) [Example 70 D2E1] |
| > 10 | > 10 | CC(c1nc(C(=O)Nc2cnoc2)c(O)c(=O)n1C)C(c1cnn(C)c1)c1c(C#N)cccc1C#N (single isomer, unassigned) [Example 19 D2E1] |
| > 10 | > 10 | COCCn1ncc(C(c2ccccc2C#N)C(C)c2nc(C(=O)Nc3cnoc3)c(O)c(=O)n2C)c1C (single isomer, unassigned) [Example 69 D2E1] |
| > 10 | > 10 | COCCn1cc(C(c2ccccc2C#N)C(C)c2nc(C(=O)Nc3cnoc3)c(O)c(=O)n2C)cn1 (single isomer, unassigned) [Example 9 D1E2] |

| IC50 (full length human TREX1) [nM] | IC50 (full length mouse TREX1) [nM] | SMILES |
| --- | --- | --- |
| > 10 | > 10 | CC(c1nc(C(=O)Nc2cnoc2)c(O)c(=O)n1C)C(c1cnccn1)c1ccccc1C#N (single isomer, unassigned) [Example 66 D2E2] |
| > 10 | > 10 | COCCCn1cc(C(c2ccccc2C#N)C(C)c2nc(C(=O)Nc3cnoc3)c(O)c(=O)n2C)cn1 (single isomer, unassigned) [Example 24 D1E2] |
| > 10 | > 10 | CC(c1nc(C(=O)Nc2cnoc2)c(O)c(=O)n1C)C(c1cnn(C)c1)c1ccc(C(F)(F)F)cc1C#N (single isomer, unassigned) [Example 30 D1E2] |
| > 10 | > 10 | CC(c1nc(C(=O)Nc2cnoc2)c(O)c(=O)n1C)C(c1cnn(CCO)c1)c1ccccc1C#N (single isomer, unassigned) [Example 35 D2E2] |
| > 10 | > 10 | Cc1cnn(C)c1C(c1ccccc1C#N)C(C)c1nc(C(=O)Nc2cnoc2)c(O)c(=O)n1C (single isomer, unassigned) [Example 84 D1E2] |
| 1 to 10 | > 10 | Cc1nn(C)cc1C(c1ccc(F)cc1C#N)C(C)c1nc(C(=O)Nc2cnoc2)c(O)c(=O)n1C (single isomer, unassigned) [Example 56 D2E1] |
| > 10 | > 10 | Cc1cnc(C(c2ccccc2Cl)C(C)c2nc(C(=O)Nc3cnoc3)c(O)c(=O)n2C)cn1 (single isomer, unassigned) [Example 116 D2E2] |
| > 10 | > 10 | Cc1nn(C)cc1C(c1ccccc1C#N)C(c1nc(C(=O)Nc2cnoc2)c(O)c(=O)n1C)C(F)(F)F (single isomer, unassigned) [Example 41 D1E1] |
| > 10 | > 10 | CC(c1nc(C(=O)Nc2cnoc2)c(O)c(=O)n1C)C(c1cnn(CCN(C)C)c1)c1ccccc1C#N (single isomer, unassigned) [Example 33 D2E1] |
| > 10 | > 10 | CC(c1nc(C(=O)Nc2cnoc2)c(O)c(=O)n1C)C(c1cnn(CC2CC2)c1)c1ccccc1C#N (single isomer, unassigned) [Example 23 D2E1] |
| > 10 | > 10 | CC(c1nc(C(=O)Nc2cnoc2)c(O)c(=O)n1C)C(c1cnn(CCN2CCOCC2)c1)c1ccccc1C#N (single isomer, unassigned) [Example 20 D1E2] |
| > 10 | > 10 | COCCn1ncc(C(c2ccccc2C#N)C(C)c2nc(C(=O)Nc3cnoc3)c(O)c(=O)n2C)c1C (single isomer, unassigned) [Example 69 D1E2] |
| > 10 | > 10 | Cc1nn(C)cc1C(c1ccccc1C#N)C(c1nc(C(=O)Nc2cnoc2)c(O)c(=O)n1C)C(F)(F)F (single isomer, unassigned) [Example 41 D2E2] |
| > 10 | > 10 | CC(c1nc(C(=O)Nc2cnoc2)c(O)c(=O)n1C)C(c1cnn(C)c1)c1cc(F)ccc1Cl (single isomer, unassigned) [Example 61 D2E2] |
| > 10 | > 10 | CC(c1nc(C(=O)Nc2cnoc2)c(O)c(=O)n1C)C(c1ccccc1C#N)c1ccnn1C (single isomer, unassigned) [Example 1 D2E1] |
| > 10 | > 10 | CC(c1nc(C(=O)Nc2cnoc2)c(O)c(=O)n1C)C(c1cnn(C)c1)c1ccc(C(=O)N(C)C)cc1C#N (single isomer, unassigned) [Example 11 D2E1] |
| > 10 | > 10 | Cc1nc(C)c(C(c2ccccc2C#N)C(C)c2nc(C(=O)Nc3cnoc3)c(O)c(=O)n2C)nc1C (single isomer, unassigned) [Example 122 D2E2] |
